Laboratory results: US20250332265A1, “PSMA TARGETED CONJUGATE COMPOUNDS AND USES THEREOF” (priority 2021, published 2025)

Key:
[1] = In vitro cytotoxicity studies (CellTiter 96) with or without 690 nm light, PC3pip; assay type: cell-based, human; conditions: 24 h in the dark, no light; read-out: IC50 dark cytotoxicity, PC3pip cells
Method: (§1) PC3pip and PC3flu cells were plated at 3,000 cells/well in 96-well plates. Twenty-four hours later, drugs (PSMA-1-MMAE-IR700 or PSMA-1-IR700) of different concentrations were added. After incubation at 37° C. in the dark for 24 h, cell viability was determined by CellTiter 96© aqueous one solution cell proliferation assay using absorbance at 490 nm (Promega Biotech, Madison, […]). The concentration required to inhibit 50% of cell growth (IC50) was determined by GraphPad Prism 3.0. To test the cytotoxicity of PSMA-1-MMAE-TR700 with light irradiation, drugs at a final concentration of 5 nM were added to cells and incubated in the dark for 24 h. Cells were then washed 3 times with RMPI 1640 and then irradiated with 690 nm light (L690-66-60, Marubeni America Co, New York, NY). Cells were incubated in the dark for another 24 h. Cell viability was then determined by CellTiter 96© aqueous one solution cell proliferation assay (Promega Biotech, Madison, […]). The coefficient drug interaction (CDI) was calculated as follows: CDI=AB/(A×B), where AB is the ratio of the absorbance of combination treatment groups (PSMA-1-MMAE-IR700 with light irradiation) to the absorbance of control groups; A or B is the absorbance of single treatment group (PSMA-1-MMAE-IR700 without light or PSMA-1-IR700 with light irradiation) to the absorbance of control groups. CDI <1, =1 and >1 indicates synergistic, additive or antagonistic effect.

[2] = tested on: PSMA-positive PC3pip cells; test: as above; assay type: cell-based, human; conditions: for ratio of absorbance to control groups (cell viability): 5 nM, 24 h
Method: as §1

PC3pip tumors [3] = test: In vivo antitumor efficacy studies with PDT; set-up: species or system mice
Method: The effect of PSMA-1-MMAE-IR700 were tested in mice bearing PC3pip tumors. Animals with tumor size at about 100 mm3 were used for the study (tumor volume=Length×width2/2). Animals were divided into 7 groups: (1) mice receiving PBS; (2) mice receiving 100 nmol/kg PSMA-1-MMAE-IR700 with PDT; (3) mice receiving equal doses of PSMA-1-MMAE-IR700 to group 2, but not receiving PDT; (4) Mice receiving equal doses of PSMA-1-IR700 to group 2 with PDT treatment; (5) Mice receiving equal doses of PSMA-1-IR700 to group 2 without PDT; (6) mice receiving equal doses of PSMA-1-IR700 to group 2+free MMAE with PDT (MMAE normalized to that delivered by PSMA-1-MMAE-IR700); and (7) mice receiving equal doses of PSMA-1-IR700 to group 2+free MMAE without PDT. Each group had 5 mice. Animals received drugs through tail vein injection on day 0, 4, 8, 12 and 16 and treated with 50 J/cm2 of 690 nm light at 1 h post-injection on these injection days. The dose and schedule was based on previous PSMA-1-VcMMAE work and were not optimized. Animals were imaged before and after PDT. Mice were monitored every other day for 90 days. Animals were euthanized when tumors became too large (diameter >20 mm) or animals were moribund. Data were reported as body weight over time, tumor size over time and Kaplan-Meier survival plots.

[4] = Stability in mouse plasma; assay type: in vitro ADME
Excerpt: To synthesize PSMA-1-MMAE-IR700 (FIG. 6A), we used a self-immolative cathespsin cleavable Vc linker to conjugate MMAE to PSMA-1-Cys-C6-Lys. IR700 was conjugated to the PSMA-1 ligand through reaction of the Lys amine (—NH2) with NHS ester as no IR700 release is required for light activation. […] Degradation of PSMA-1-MMAE-IR700 led to release of free MMAE.

PC3pip tumors [5] = test: Immunofluorescent detection of apoptosis (caspase-3, H&E); assay type: in vivo, mice; conditions: single dose, four days after the treatment
Excerpt: Animals bearing PC3pip tumors were divided into 7 groups: (1) mice receiving PBS; (2) mice receiving 100 nmol/kg PSMA-1-MMAE-IR700 with PDT; (3) mice receiving equal doses of PSMA-1-MMAE-IR700 to group 2, but not receiving PDT; (4) Mice receiving equal doses of PSMA-1-IR700 to group 2 with PDT treatment; (5) Mice receiving equal doses of PSMA-1-IR700 to group 2 without PDT; (6) mice receiving equal dose of PSMA-1-IR700 to group 2+free MMAE with PDT (MMAE normalized to that delivered by PSMA-1-MMAE-IR700); and (7) mice receiving equal dose of PSMA-1-IR700 to group 2+free MMAE without PDT. Animals were treated with one single dose and were sacrificed at 4-day post treatment. Tumors were snap-frozen in OCT, cut into 10 μm thick sections and fixed on slides. Induction of apoptosis by the treatment was determined by rabbit polyclonal anti-Caspase-3 antibody (Abcam, Cambridge, UK). A goat anti-rabbit polyclonal antibody labeled by Alexa Fluor-594 was used as secondary antibody (Abcam, Cambridge, UK). The presence of apoptosis was determined by fluorescence images under Leica DM4000B fluorescence microscope at 10×. H&E staining of tumor tissues was performed in adjacent sections to check the histology of the tumors. Experiments were repeated in 5 mice.

[6] = tested on: PSMA-negative PC3flu cells; test: In vitro cytotoxicity studies (CellTiter 96) with or without 690 nm light, PC3flu; assay type: cell-based, human
Method: as §1, with “CDI <1, =1 and >1 indicates synergistic, additive or antagonistic effect.” left out

## CC[C@H](C)[C@@H]([C@@H](CC(=O)N1CCC[C@H]1[C@H](OC)[C@@H](C)C(=O)N[C@H](C)[C@@H](O)c1ccccc1)OC)N(C)C(=O)[C@@H](NC(=O)[C@H](C(C)C)N(C)C(=O)OCc1ccc(NC(=O)[C@H](CCCNC(N)=O)NC(=O)[C@@H](NC(=O)CCCCCN2C(=O)CC(SC[C@H](NC(=O)[C@H](CCC(=O)O)NC(=O)[C@H](CCC(=O)O)NC(=O)[C@H](CCC(=O)O)NC(=O)CCCCCNC(=O)[C@H]3CC[C@H](CNC(=O)CC[C@H](NC(=O)N[C@@H](CCC(=O)O)C(=O)O)C(=O)O)CC3)C(=O)NCCCCCC(=O)N[C@@H](CCCCNC(=O)CCCCCNC(=O)OCCCOc3cccc4c5n6c(c34)=NC3=NC(=Nc4c7ccccc7c(n4[Si]6(O[Si](C)(C)CCC[N+](CCCS(=O)(=O)[O-])(CCCS(=O)(=O)O)CCCS(=O)(=O)O)O[Si](C)(C)CCC[N+](CCCS(=O)(=O)[O-])(CCCS(=O)(=O)O)CCCS(=O)(=O)O)N=C4N=C(N=5)c5ccccc54)c4ccccc43)C(N)=O)C2=O)C(C)C)cc1)C(C)C (stereo partly shown) [PSMA-1-MMAE-IR700]
[1]
  IC50: 8.42 ± 1.03 nM
[2]; 690 nm light 1 J/cm2
  ratio of absorbance to control groups (cell viability): 0.423
[2]; 690 nm light 3 J/cm2
  ratio of absorbance to control groups (cell viability): 0.208
[2]; without light
  ratio of absorbance to control groups (cell viability): 0.892
[2]; 1 J/cm2 light irradiation
  coefficient drug interaction (CDI): 0.609
[2]; 3 J/cm2 light irradiation
  coefficient drug interaction (CDI): 0.550
[2]; 72 h in the dark
  selectivity of killing PC3pip versus PC3flu cells: 50 fold
PC3pip tumors [3]; 100 nmol/kg every 4 days, 5 doses, 50 J/cm^2 of 690 nm light
  tumor growth, with light irradiation (PDT): greatest tumor growth inhibition
PC3pip tumors [3]; 100 nmol/kg every 4 days, 5 doses, no light
  tumor growth, no light treatment: significantly inhibited tumor growth
PC3pip tumors [3]; 100 nmol/kg with light irradiation, 90-day period
  cure rate for tumors: 60%
PC3pip tumors [3]; liver, lung, heart, spleen, kidney, salivary gland and prostate
  histological analysis of major organs on day 30: did not cause systemic toxicity
PC3pip tumors [3]; treatment groups
  body weight loss: did not cause any body weight loss
[4]
  half-life: 17.2 ± 2.8 h
PC3pip tumors [5]
  apoptosis / necrotic damage in tumors, with PDT: most aggressive necrotic damage and apoptosis
[6]; 5 nM, with or without light
  cell killing in PC3flu cells: no effective cell killing
[6]; 24 h in the dark, no light
  IC50 dark cytotoxicity, PC3flu cells: no IC50 value was obtained
